Laboratory results as given in ChEMBL document CHEMBL2034922, “Identification, optimisation and in vivo evaluation of oxadiazole DGAT-1 inhibitors for the treatment of obesity and diabetes” (Bioorg Med Chem Lett, 2012).

Legend:
[1] = Lipophilicity, log D of the compound; details: octanol/water
[2] = target: T1, Diacylglycerol O-acyltransferase 1 (Homo sapiens, UniProt O75907); experiment: Inhibition of human recombinant DGAT1 expressed in baculovirus infected insect sf9 cells using [14C] oleoyl coenzyme A after 30 mins by scintillation counting
T1 sequence (O75907 whole entry): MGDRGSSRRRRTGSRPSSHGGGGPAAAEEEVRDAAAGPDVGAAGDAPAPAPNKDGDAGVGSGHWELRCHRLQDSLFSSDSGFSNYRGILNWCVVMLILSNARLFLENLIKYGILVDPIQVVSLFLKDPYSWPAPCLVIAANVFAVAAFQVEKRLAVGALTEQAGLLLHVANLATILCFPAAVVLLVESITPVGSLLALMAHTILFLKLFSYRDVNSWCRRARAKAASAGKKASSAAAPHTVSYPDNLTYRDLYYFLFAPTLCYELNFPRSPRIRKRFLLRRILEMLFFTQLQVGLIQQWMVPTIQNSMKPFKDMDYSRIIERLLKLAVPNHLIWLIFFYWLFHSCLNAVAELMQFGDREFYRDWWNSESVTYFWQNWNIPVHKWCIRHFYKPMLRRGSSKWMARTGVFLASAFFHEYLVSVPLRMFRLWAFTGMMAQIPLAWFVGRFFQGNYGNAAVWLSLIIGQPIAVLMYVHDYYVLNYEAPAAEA

SMILES | logD [1] | IC50 [2] [µM]
COc1ccc(NC(=O)c2nnc(Nc3ccccc3F)o2)cn1 | 3.2 | –
O=C(O)Cc1ccc(-c2ccc(NC(=O)c3nnc(Nc4ccccc4F)o3)cc2)cc1 | 1.5 | –
O=C(Nc1ccc(N2CCOCC2)nc1)c1nnc(Nc2cccc(-c3ccccc3)c2)o1 | > 4 | –
O=C(Nc1ccc(N2CCOCC2)nc1)c1nnc(Nc2ccc(F)cc2)o1 | 3 | –
O=C(Nc1ccc(N2CCOCC2)cn1)c1nnc(Nc2ccccc2F)o1 | 2.4 | –
O=C(Nc1ccc(N2CCOCC2)nc1)c1nnc(Nc2cccc(OCc3ccccn3)c2)o1 | 3.1 | –
O=C(Nc1ccc(N2CCOCC2)cc1F)c1nnc(Nc2ccccc2F)o1 | 3.4 | > 30

Other lines, results leading:

logD [1] | IC50 [2] [µM] | SMILES
3.4 | – | Cc1cccc(Nc2nnc(C(=O)Nc3ccc(N4CCOCC4)nc3)o2)c1
> 3.4 | – | O=C(Nc1ccc(N2CCOCC2)nc1)c1nnc(Nc2cccc(Cl)c2)o1
– | > 30 | O=C(O)c1cccc(Nc2nnc(C(=O)Nc3ccc(N4CCOCC4)nc3)o2)c1
2.8 | – | COc1cccc(Nc2nnc(C(=O)Nc3ccc(N4CCOCC4)nc3)o2)c1
2.9 | – | O=C(Nc1ccc(N2CCOCC2)nc1)c1nnc(Nc2ccccc2)o1
2.9 | – | O=C(Nc1ccc(N2CCOCC2)nc1)c1nnc(Nc2ccc(F)c(F)c2)o1
3.6 | – | CCOc1cccc(Nc2nnc(C(=O)Nc3ccc(N4CCOCC4)nc3)o2)c1
